Source: ChEMBL document CHEMBL3885881, “DrugMatrix”

Organism: Rattus norvegicus
Type: toxicity, organism-based, Sprague-Dawley
Conditions: in vivo, ip, 24 h, route intraperitoneal, time 1 day, vehicle .1 % RSA/SALINE
[1] = 0 mg/kg, vehicle control, tissue Blood, dose level Control
[2] = 0 mg/kg, vehicle control, tissue Plasma, dose level Control
[3] = […], tissue Blood, dose 0.25 mg/Kg, dose level High
[4] = […], tissue Plasma, dose 0.25 mg/Kg, dose level High

Description: DrugMatrix - Regimen: Single

For TNF-ALPHA, RAT, the “ABSOLUTE EOSINOPHIL” value [1] was 109.33 CELLS/uL, the “ABSOLUTE LYMPHOCYTE” value [1] was 13180.67 CELLS/uL and the “ABSOLUTE MONOCYTE” value [1] was 354 CELLS/uL. The “ABSOLUTE SEGMENTED NEUTROPHIL” value [1] was 1756 CELLS/uL, the BASOPHIL [1] was 0% and the EOSINOPHIL [1] was 0.67%. For the same substance, the “ERYTHROCYTE COUNT” value [1] was 5.38 x10E6/uL, the HEMOGLOBIN [1] was 12.57 G/DL and the “LEUKOCYTE COUNT” value [1] was 15.4 x10E3/uL. For the same substance, the LYMPHOCYTE [1] was 85%, the “MEAN CORPUSCULAR HEMOGLOBIN” value [1] was 23.37 pg and the “MEAN CORPUSCULAR HEMOGLOBIN CONCENTRATION” value [1] was 38.3 G/DL. For the same substance, the NEUTROPHIL [1] was 12%, the “NUCLEATED RED BLOOD CELLS” value [1] was 0 /100WBC and the “PLATELET COUNT” value [1] was 832.33 x10E3/uL. For the same substance, the “ALANINE AMINOTRANSFERASE” value [2] was 37.33 u/L, the ALBUMIN [2] was 4 G/DL and the “ALKALINE PHOSPHATASE” value [2] was 344.67 u/L. For the same substance, the “ASPARTATE AMINOTRANSFERASE” value [2] was 69.33 u/L, the “BLOOD UREA NITROGEN” value [2] was 13.67 mg/dL and the “CARBON DIOXIDE” value [2] was 28.33 mmol/L. The CHLORIDE [2] was 99.67 MEQ/L, the CHOLESTEROL [2] was 73.67 mg/dL and the “CREATINE PHOSPHOKINASE” value [2] was 270 u/L. For the same substance, the CREATININE [2] was 0.19 mg/dL, the GLUCOSE [2] was 176.33 mg/dL and the “LACTATE DEHYDROGENASE” value [2] was 160 u/L. The PHOSPHORUS [2] was 13.47 mg/dL, the POTASSIUM [2] was 6.77 MEQ/L and the “TOTAL BILIRUBIN” value [2] was 0.13 mg/dL. For the same substance, the “TOTAL PROTEIN” value [2] was 6.07 G/DL, the “URIC ACID” value [2] was 1.87 mg/dL and the “ABSOLUTE EOSINOPHIL” value [3] was 57.67 CELLS/uL. The “ABSOLUTE LYMPHOCYTE” value [3] was 13018 CELLS/uL, the “ABSOLUTE MONOCYTE” value [3] was 366 CELLS/uL and the “ABSOLUTE SEGMENTED NEUTROPHIL” value [3] was 1925 CELLS/uL. For the same substance, the BASOPHIL [3] was 0%, the EOSINOPHIL [3] was 0.33% and the “ERYTHROCYTE COUNT” value [3] was 5.31 x10E6/uL. The HEMATOCRIT [3] was 32.37%, the HEMOGLOBIN [3] was 12.23 G/DL and the “LEUKOCYTE COUNT” value [3] was 15.37 x10E3/uL. The LYMPHOCYTE [3] was 85%, the “MEAN CORPUSCULAR HEMOGLOBIN” value [3] was 23.03 pg and the “MEAN CORPUSCULAR HEMOGLOBIN CONCENTRATION” value [3] was 37.8 G/DL. For the same substance, the “MEAN CORPUSCULAR VOLUME” value [3] was 60.97 fL, the NEUTROPHIL [3] was 12.33% and the “NUCLEATED RED BLOOD CELLS” value [3] was 0.33 /100WBC. The “PLATELET COUNT” value [3] was 1023.67 x10E3/uL, the “ALANINE AMINOTRANSFERASE” value [4] was 40 u/L and the “ALKALINE PHOSPHATASE” value [4] was 339.67 u/L. The “ASPARTATE AMINOTRANSFERASE” value [4] was 85.67 u/L, the “BLOOD UREA NITROGEN” value [4] was 13.67 mg/dL and the CHOLESTEROL [4] was 76.33 mg/dL. The “CREATINE PHOSPHOKINASE” value [4] was 860.67 u/L, the CREATININE [4] was 0.21 mg/dL and the GLUCOSE [4] was 158.33 mg/dL. The “LACTATE DEHYDROGENASE” value [4] was 124 u/L, the PHOSPHORUS [4] was 11.93 mg/dL and the POTASSIUM [4] was 6.39 MEQ/L. The SODIUM [4] was 145.63 MEQ/L, the “TOTAL BILIRUBIN” value [4] was 0.2 mg/dL and the “TOTAL PROTEIN” value [4] was 6 G/DL.
